Test results from patent publication US12491181B2, “Nimodipine injection composition and preparation method therefor” (priority 2018, dated 2025).
Converted amounts (≈) assume the structure as drawn. Where two headings read alike, the source gives them in different places.

Columns and labels:
[1] = test system: Wild-type AB zebrafish larvae; assay: Zebrafish cardiovascular toxicity, administration by dissolving the drug into the water; format: in vivo; set-up: Mortality / Incidence of Atrial Arrest: unit not given here
[2] = cited from earlier work
[3] = test system: Wild-type AB zebrafish larvae; assay: Zebrafish cardiovascular toxicity, administration via yolk sac injection; format: in vivo; conditions: yolk sac injection 10 nl
Protocol: Wild-type AB zebrafish larvae were treated with the drugs to be tested for 24 hours via yolk sac injection administration with a maximum dose volume of 40 nl, and the five initial test concentrations were: 0.1 mg/mL, 1 mg/mL, 10 mg/mL, 100 mg/mL, and 500 mg/mL, respectively. At the same time, a blank control group was set up, with 30 zebrafish treated at each concentration. At the end of drug treatment, the number of zebrafish deaths in each experimental group was counted to provide a basis for the next experimental concentration design.
2.2.1 10 nl was administered via yolk sac injection. After treatment for a certain period of time, 10 zebrafish were randomly selected to have their heart rates counted, and their relative heart rates were calculated for comparison.
2.2.3 10 zebrafish in each group were randomly selected and observed under the dissecting microscope. […]
Three formal experimental concentrations were set. After treatment for a certain period of time, 10 zebrafish were randomly selected to have their heart rates counted, and their relative heart rates were calculated for comparison.

[4] = Solubility Test for Nimodipine in Oil Phase; format: physicochemical; conditions: normal temperature; for solubility: oil or lipid
Source text: There are different crystalline forms for nimodipine, i.e. α and β. The solubility is different in solvents for different crystalline forms. […] The solubility in an oil phase was not reported yet. […] Furthermore, the solubility of α-type is much greater than that of β-type both in the medium-chain fatty oil and the mixture of soybean oil and medium-chain fatty oil (see the table below). Therefore, formulating α-type nimodipine into a fat emulsion injection may solve the problems of low drug loading efficiency, poor safety, and poor stability occurring in its solution for injection and other fat emulsions for injection developed by the prior art. [table]

[5] = cited from earlier work; remark: listed apart in the source
guinea pigs = assay: Active Systemic Anaphylaxis Test in Guinea Pigs; conditions: positive control group, after stimulation
SD rats = assay: Passive Anaphylaxis Test in Rats; format: in vivo, rat; set-up: key to Blue Stain Reaction: − indicates negative; + indicates positive; conditions: sensitized SD rats, 100 mg/kg intravenously, positive control
[6] = dissolved into the water, 0.625 μg/ml
[7] = dissolved into the water, 1.25 μg/ml
[8] = dissolved into the water, 2.5 μg/ml
[9] = dissolved into the water, 5.0 μg/ml

**Q.** Which “concentration at which pericardial edema was induced in all zebrafish” value ([1]; dissolved into the water) does the source give for `COCCOC(=O)C1=C(C)NC(C)=C(C(=O)OC(C)C)C1c1cccc([N+](=O)[O-])c1` (centres unmarked) [Drug substance, Nimodipine] here?
**A.** 5000 ng/mL

**Q.** What about the “Incidence of Atrial Arrest” value [1, 6] of the same compound?
**A.** 0

**Q.** And the “Incidence of Pericardial Edema” value [1, 6]?
**A.** 10

**Q.** What about the Mortality [1, 6] of the same compound?
**A.** 0

**Q.** And the “Relative Heart Rate” value [1, 6]?
**A.** 97.0

**Q.** And the “Incidence of Atrial Arrest” value [1, 7]?
**A.** 0

**Q.** What about the “Incidence of Pericardial Edema” value [1, 7] of the same compound?
**A.** 20

**Q.** What about the Mortality [1, 7] of the same compound?
**A.** 0

**Q.** And the “Relative Heart Rate” value [1, 7]?
**A.** 94.8

**Q.** What about the “Incidence of Atrial Arrest” value [1, 8] of the same compound?
**A.** 10

**Q.** What about the “Incidence of Pericardial Edema” value [1, 8] of the same compound?
**A.** 50

**Q.** What about the Mortality [1, 8] of the same compound?
**A.** 0

**Q.** And the “Relative Heart Rate” value [1, 8]?
**A.** 76.4

**Q.** What about the “Incidence of Atrial Arrest” value [1, 9] of the same compound?
**A.** 90

**Q.** What about the “Incidence of Pericardial Edema” value [1, 9] of the same compound?
**A.** 100

**Q.** What about the Mortality [1, 9] of the same compound?
**A.** 26.7

**Q.** What about the “Relative Heart Rate” value [1, 9] of the same compound?
**A.** 58.5

**Q.** And the “incidence of atrial arrest” value [1, 9]?
**A.** 90%

**Q.** What about the maximum non-lethal concentration ([1]; zebrafish, drug dissolved into the water, 24 hours) of the same compound?
**A.** 2.5 µg/mL

**Q.** What about the oral bioavailability ([2]; healthy subjects) of the same compound?
**A.** 5-13%

**Q.** And the biological half-life ([2]; in vivo)?
**A.** 1.5-2 h

**Q.** What about the oral bioavailability ([2]; patients with subarachnoid hemorrhage) of the same compound?
**A.** 3-28%

**Q.** And the “Actual Heart Rate (± SD)” value ([3]; 0.5 mg/ml)?
**A.** 159.0 ± 6.8 beat / min

**Q.** And the “Incidence of Circulatory Insufficiency” value ([3]; 0.5 mg/ml)?
**A.** 0%

**Q.** And the “Incidence of Decreased Blood Flow” value ([3]; 0.5 mg/ml)?
**A.** 0%

**Q.** And the “Incidence of Pericardial Edema” value ([3]; 0.5 mg/ml)?
**A.** 0%

**Q.** And the Mortality ([3]; 0.5 mg/ml)?
**A.** 0%

**Q.** And the “Relative Heart Rate (± SD)” value ([3]; 0.5 mg/ml)?
**A.** 99.1 ± 4.2%

**Q.** And the “Actual Heart Rate (± SD)” value ([3]; 1.0 mg/ml)?
**A.** 159.6 ± 5.3 beat / min

**Q.** What about the “Incidence of Circulatory Insufficiency” value ([3]; 1.0 mg/ml) of the same compound?
**A.** 0%

**Q.** What about the “Incidence of Decreased Blood Flow” value ([3]; 1.0 mg/ml) of the same compound?
**A.** 10%

**Q.** What about the “Incidence of Pericardial Edema” value ([3]; 1.0 mg/ml) of the same compound?
**A.** 20%

**Q.** And the Mortality ([3]; 1.0 mg/ml)?
**A.** 0%

**Q.** And the “Relative Heart Rate (± SD)” value ([3]; 1.0 mg/ml)?
**A.** 99.4 ± 3.3%

**Q.** What about the “Actual Heart Rate (± SD)” value ([3]; 2.0 mg/ml) of the same compound?
**A.** 158.4 ± 8.7 beat / min

**Q.** And the “Incidence of Circulatory Insufficiency” value ([3]; 2.0 mg/ml)?
**A.** 10%

**Q.** What about the “Incidence of Decreased Blood Flow” value ([3]; 2.0 mg/ml) of the same compound?
**A.** 10%

**Q.** What about the Mortality ([3]; 2.0 mg/ml) of the same compound?
**A.** 0%

**Q.** And the “Relative Heart Rate (± SD)” value ([3]; 2.0 mg/ml)?
**A.** 98.7 ± 5.4%

**Q.** What about the “Incidence of Pericardial Edema” value ([3]; 2.0 mg/ml (67 mg/kg)) of the same compound?
**A.** 30%

**Q.** And the “Actual Heart Rate (± SD)” value ([3]; 4.0 mg/ml)?
**A.** 166.5 ± 7.2 beat / min

**Q.** What about the “Incidence of Circulatory Insufficiency” value ([3]; 4.0 mg/ml) of the same compound?
**A.** 10%

**Q.** What about the “Incidence of Decreased Blood Flow” value ([3]; 4.0 mg/ml) of the same compound?
**A.** 40%

**Q.** And the “Incidence of Pericardial Edema” value ([3]; 4.0 mg/ml)?
**A.** 60%

**Q.** What about the Mortality ([3]; 4.0 mg/ml) of the same compound?
**A.** 20%

**Q.** What about the “Relative Heart Rate (± SD)” value ([3]; 4.0 mg/ml) of the same compound?
**A.** 103.7 ± 4.5%

**Q.** And the “Actual Heart Rate (± SD)” value ([3]; 8.0 mg/ml)?
**A.** 167.1 ± 10.2 beat / min

**Q.** And the “Incidence of Circulatory Insufficiency” value ([3]; 8.0 mg/ml)?
**A.** 40%

**Q.** And the “Incidence of Decreased Blood Flow” value ([3]; 8.0 mg/ml)?
**A.** 10%

**Q.** And the “Incidence of Pericardial Edema” value ([3]; 8.0 mg/ml)?
**A.** 60%

**Q.** And the Mortality ([3]; 8.0 mg/ml)?
**A.** 33.3%

**Q.** And the “Relative Heart Rate (± SD)” value ([3]; 8.0 mg/ml)?
**A.** 104.1 ± 6.4%

**Q.** And the “Actual Heart Rate (± SD)” value ([3]; 16 mg/ml)?
**A.** 166.8 ± 10.3 beat / min

**Q.** What about the “Incidence of Circulatory Insufficiency” value ([3]; 16 mg/ml) of the same compound?
**A.** 40%

**Q.** And the “Incidence of Decreased Blood Flow” value ([3]; 16 mg/ml)?
**A.** 30%

**Q.** And the “Incidence of Pericardial Edema” value ([3]; 16 mg/ml)?
**A.** 70%

**Q.** And the Mortality ([3]; 16 mg/ml)?
**A.** 50%

**Q.** And the “Relative Heart Rate (± SD)” value ([3]; 16 mg/ml)?
**A.** 103.9 ± 6.4%

**Q.** And the “Actual Heart Rate (± SD)” value ([3]; 32 mg/ml)?
**A.** 144.5 ± 7.4 beat / min

**Q.** And the “Incidence of Circulatory Insufficiency” value ([3]; 32 mg/ml)?
**A.** 100%

**Q.** And the “Incidence of Decreased Blood Flow” value ([3]; 32 mg/ml)?
**A.** 0%

**Q.** What about the “Incidence of Pericardial Edema” value ([3]; 32 mg/ml) of the same compound?
**A.** 100%

**Q.** What about the Mortality ([3]; 32 mg/ml) of the same compound?
**A.** 80%

**Q.** What about the “Relative Heart Rate (± SD)” value ([3]; 32 mg/ml) of the same compound?
**A.** 90.0 ± 4.6 %

**Q.** With `COCCOC(=O)C1=C(C)NC(C)=C(C(=O)OC(C)C)C1c1cccc([N+](=O)[O-])c1` (stereo not drawn) [α-type, nimodipine] as the compound, how does the “Solubility, Medium-chain Oil” value [4] read?
**A.** 23.22 mg/mL (≈ 55.5 mM)

**Q.** And the “Solubility, Soybean Oil” value [4]?
**A.** 7.5 mg/mL (≈ 17.9 mM)

**Q.** And the “Solubility, Soybean Oil:Medium-chain Oil (4:6)” value [4]?
**A.** 18.1 mg/mL (≈ 43.3 mM)

**Q.** What does the source list for `COCCOC(=O)C1=C(C)NC(C)=C(C(=O)OC(C)C)C1c1cccc([N+](=O)[O-])c1` (stereo not drawn) [β-type, nimodipine]?
**A.** solubility ([4]; medium-chain oil, read-out: Solubility, Medium-chain Oil): 11.8 mg/mL (≈ 28.2 mM); solubility ([4]; soybean oil, read-out: Solubility, Soybean Oil): 6.7 mg/mL (≈ 16 mM); solubility ([4]; soybean oil:medium-chain oil (4:6), read-out: Solubility, Soybean Oil:Medium-chain Oil (4:6)): 11 mg/mL (≈ 26.3 mM); Solubility, Water ([5]; normal temperature): 0.0036 mg/mL (≈ 0.0086 mM); solubility in water ([5]; published literature): 0.0036 mg/mL (≈ 0.0086 mM)

**Q.** Which results are given for “bovine serum albumin: positive control of the anaphylaxis tests”?
**A.** intensity of anaphylaxis reaction (guinea pigs): ++˜++++; mortality rate (guinea pigs): 50%; total reaction rate (guinea pigs): 100%; Blue Stain Reaction (SD rats): +; Blue Stain Reaction (diameter) (SD rats): 22.0 ± 4.3 mm
